Data from PubChem BioAssay (NCI).
Several values for one entry are separate records, joined by “and”; a condition that tells them apart may be missing. Equal entries are not always repeated.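 Results reflect a 48-hour exposure of cells in 96-well plates to compound at five concentrations. GI50 = concentration required for 50% inhibition of growth. Definition used: TGI = concentration required for complete inhibition of growth.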

Experiments:
Experiment in all cases: NCI tumour cell line growth inhibition, 48 h
[1] = tested on: 786-0 renal
[2] = tested on: A498 renal
[3] = tested on: A549 NSCLC
[4] = tested on: ACHN renal
[5] = tested on: BT-549 breast
[6] = tested on: CAKI-1 renal
[7] = tested on: CCRF-CEM leukemia
[8] = tested on: COLO 205 colon
[9] = tested on: DU-145 prostate
[10] = tested on: EKVX NSCLC
[11] = tested on: HCC-2998 colon
[12] = tested on: HCT-116 colon
[13] = tested on: HCT-15 colon
[14] = tested on: HL-60(TB) leukemia
[15] = tested on: HOP-62 NSCLC
[16] = tested on: HS 578T breast
[17] = tested on: HT29 colon
[18] = tested on: IGROV1 ovarian
[19] = tested on: K-562 leukemia
[20] = tested on: KM12 colon
[21] = tested on: LOX IMVI melanoma
[22] = tested on: M14 melanoma
[23] = tested on: MALME-3M melanoma
[24] = tested on: MCF7 breast
[25] = tested on: MDA-MB-231 breast
[26] = tested on: MDA-MB-435
[27] = tested on: MDA-N
[28] = tested on: MOLT-4 leukemia
[29] = tested on: NCI-H226 lung
[30] = tested on: NCI-H23 lung
[31] = tested on: NCI-H460 lung
[32] = tested on: NCI/ADR-RES ovarian
[33] = tested on: OVCAR-3 ovarian
[34] = tested on: OVCAR-4 ovarian
[35] = tested on: OVCAR-5 ovarian
[36] = tested on: OVCAR-8 ovarian
[37] = tested on: PC-3 prostate
[38] = tested on: RPMI-8226 leukemia
[39] = tested on: RXF 393 renal
[40] = tested on: SF-268 CNS
[41] = tested on: SF-295 CNS
[42] = tested on: SF-539 CNS
[43] = tested on: SK-MEL-2 melanoma
[44] = tested on: SK-MEL-28 melanoma
[45] = tested on: SK-MEL-5 melanoma
[46] = tested on: SK-OV-3 ovarian
[47] = tested on: SN12C renal
[48] = tested on: SNB-19 CNS
[49] = tested on: SNB-75 CNS
[50] = tested on: SR leukemia
[51] = tested on: SW-620 colon
[52] = tested on: T-47D breast
[53] = tested on: TK-10 renal
[54] = tested on: U251 CNS
[55] = tested on: UACC-257 melanoma
[56] = tested on: UACC-62 melanoma
[57] = tested on: UO-31 renal
[58] = tested on: HOP-92 NSCLC
[59] = tested on: NCI-H522 lung

SMILES: CO[C@]1(c2ccc([N+](=O)[O-])cc2)Oc2ccccc2C(=O)[C@@]1(Nc1ccc(C=O)cc1)OC
- TGI [1]: > 10 µM
- TGI [2]: > 10 µM
- TGI [3]: > 10 µM
- TGI [4]: > 10 µM
- TGI [5]: > 10 µM
- TGI [6]: > 10 µM
- TGI [7]: > 10 µM
- TGI [8]: > 10 µM
- TGI [9]: > 10 µM
- TGI [10]: > 10 µM
- TGI [11]: > 10 µM
- TGI [12]: > 10 µM
- TGI [13]: > 10 µM
- TGI [14]: > 10 µM
- TGI [15]: > 10 µM
- TGI [16]: > 10 µM
- TGI [17]: > 10 µM
- TGI [18]: > 10 µM
- TGI [19]: > 10 µM
- TGI [20]: > 10 µM
- TGI [21]: > 10 µM
- TGI [22]: > 10 µM
- TGI [23]: > 10 µM
- TGI [24]: > 10 µM
- TGI [25]: > 10 µM
- TGI [26]: > 10 µM
- TGI [27]: > 10 µM
- TGI [28]: > 10 µM
- TGI [29]: > 10 µM
- TGI [30]: > 10 µM
- TGI [31]: > 10 µM
- TGI [32]: > 10 µM
- TGI [33]: > 10 µM
- TGI [34]: > 10 µM
- TGI [35]: > 10 µM
- TGI [36]: > 10 µM
- TGI [37]: > 10 µM
- TGI [38]: > 10 µM
- TGI [39]: > 10 µM
- TGI [40]: > 10 µM
- TGI [41]: > 10 µM
- TGI [42]: > 10 µM
- TGI [43]: > 10 µM
- TGI [44]: > 10 µM
- TGI [45]: > 10 µM
- TGI [46]: > 10 µM
- TGI [47]: > 10 µM
- TGI [48]: > 10 µM
- TGI [49]: > 10 µM
- TGI [50]: > 10 µM
- TGI [51]: > 10 µM
- TGI [52]: > 10 µM
- TGI [53]: > 10 µM
- TGI [54]: > 10 µM
- TGI [55]: > 10 µM
- TGI [56]: > 10 µM
- TGI [57]: > 10 µM

SMILES: O=C1NNC(=O)c2ccccc2SSc2ccccc2C(=O)NNC(=O)c2ccccc2SSc2ccccc21
- GI50 [1]: 10 µM
- TGI [1]: 50 µM and 26.6 µM
- GI50 [3]: 11.3 µM
- TGI [3]: 50 µM and > 100 µM
- GI50 [4]: 7.34 µM
- TGI [4]: 50 µM and > 100 µM
- GI50 [5]: 14.1 µM
- TGI [5]: 50 µM and > 100 µM
- GI50 [6]: 18.1 µM
- TGI [6]: 50 µM and > 100 µM
- GI50 [7]: 1.99 µM
- TGI [7]: 35 µM and 11.8 µM
- TGI [8]: 50 µM
- GI50 [9]: 5 µM
- TGI [9]: 50 µM and 33.6 µM
- GI50 [10]: 10.5 µM
- TGI [10]: 50 µM and > 100 µM
- TGI [11]: > 100 µM
- GI50 [12]: 5.05 µM
- TGI [12]: 50 µM and > 100 µM
- GI50 [13]: 4.61 µM
- TGI [13]: 50 µM and 37.1 µM
- TGI [14]: 23.8 µM
- TGI [15]: 50 µM and > 100 µM
- GI50 [58]: > 100 µM
- TGI [58]: > 100 µM
- GI50 [16]: > 100 µM
- TGI [16]: > 100 µM
- GI50 [17]: 20.1 µM
- TGI [17]: 50 µM and 72.1 µM
- GI50 [18]: 6.66 µM
- TGI [18]: 50 µM and > 100 µM
- GI50 [19]: 3.76 µM
- TGI [19]: 50 µM and > 100 µM
- GI50 [20]: 42.3 µM
- TGI [20]: 50 µM and > 100 µM
- GI50 [21]: 7.02 µM
- TGI [21]: 50 µM and > 100 µM
- GI50 [22]: 6.28 µM
- TGI [22]: 50 µM and 32.5 µM
- GI50 [23]: 25.9 µM
- TGI [23]: 42.6 µM and > 100 µM
- TGI [24]: > 100 µM
- GI50 [25]: 11.4 µM
- TGI [25]: 50 µM and > 100 µM
- GI50 [26]: 16.3 µM
- TGI [26]: 50 µM and > 100 µM
- GI50 [27]: 11.9 µM
- TGI [27]: 50 µM and > 100 µM
- TGI [28]: 50 µM and 17.3 µM
- TGI [29]: > 50 µM
- GI50 [30]: 7.63 µM
- TGI [30]: 50 µM and 59.8 µM
- GI50 [31]: 31 µM
- TGI [31]: 50 µM and > 100 µM
- GI50 [59]: 3.43 µM
- TGI [59]: 50 µM and 14.5 µM
- GI50 [32]: 14 µM
- TGI [32]: 50 µM and > 100 µM
- TGI [33]: 50 µM and > 100 µM
- TGI [34]: 50 µM and > 100 µM
- TGI [35]: 50 µM and 73.8 µM
- GI50 [36]: 15.4 µM
- TGI [36]: 50 µM and > 100 µM
- GI50 [37]: 24.7 µM
- TGI [37]: 50 µM and > 100 µM
- TGI [38]: 50 µM
- TGI [39]: > 50 µM
- GI50 [40]: 9.81 µM
- TGI [40]: 30.2 µM and > 100 µM
- GI50 [41]: 16.3 µM
- TGI [41]: 50 µM and > 100 µM
- GI50 [42]: 2.87 µM
- TGI [42]: 50 µM and > 100 µM
- GI50 [43]: 4.93 µM
- TGI [43]: 50 µM and > 100 µM
- GI50 [44]: 23.1 µM
- TGI [44]: 50 µM and > 100 µM
- GI50 [45]: 42.1 µM
- TGI [45]: 50 µM and > 100 µM
- GI50 [46]: > 100 µM
- TGI [46]: 50 µM and > 100 µM
- GI50 [47]: 17 µM
- TGI [47]: 50 µM and > 100 µM
- GI50 [48]: 6.35 µM
- TGI [48]: 50 µM and > 100 µM
- TGI [49]: 50 µM
- GI50 [50]: 3.79 µM
- TGI [50]: 50 µM and 32.7 µM
- GI50 [51]: 6.81 µM
- TGI [51]: 50 µM and > 100 µM
- GI50 [52]: 2.34 µM
- TGI [52]: 50 µM and 8.18 µM
- GI50 [53]: 70.9 µM
- TGI [53]: 50 µM and > 100 µM
- GI50 [54]: 7.11 µM
- TGI [54]: 50 µM and > 100 µM
- GI50 [55]: 45.2 µM
- TGI [55]: 50 µM and > 100 µM
- GI50 [56]: 8.34 µM
- TGI [56]: 50 µM and > 100 µM
- TGI [57]: > 100 µM

SMILES: CN(C)c1ccc(C2CC(c3ccc4ccccc4c3O)=NN2)cc1 (centres undefined)
- TGI [1]: 59.7 µM
- TGI [2]: 66.8 µM
- TGI [3]: > 100 µM
- TGI [4]: > 100 µM
- TGI [5]: > 100 µM
- TGI [6]: > 100 µM
- TGI [7]: 83.3 µM
- TGI [8]: 51.5 µM
- TGI [9]: > 100 µM
- TGI [11]: > 100 µM
- TGI [12]: > 100 µM
- TGI [13]: > 100 µM
- TGI [15]: > 100 µM
- TGI [58]: > 100 µM
- TGI [16]: > 100 µM
- TGI [17]: > 100 µM
- TGI [18]: > 100 µM
- TGI [19]: 90.2 µM
- TGI [20]: > 100 µM
- TGI [22]: > 100 µM
- TGI [23]: > 100 µM
- TGI [24]: > 100 µM
- TGI [25]: > 100 µM
- TGI [26]: > 100 µM
- TGI [27]: > 100 µM
- TGI [28]: 92 µM
- TGI [29]: > 100 µM
- TGI [30]: > 100 µM
- TGI [31]: > 100 µM
- TGI [59]: 85.5 µM
- TGI [32]: > 100 µM
- TGI [33]: > 100 µM
- TGI [34]: > 100 µM
- TGI [35]: > 100 µM
- TGI [36]: > 100 µM
- TGI [37]: > 100 µM
- TGI [38]: > 100 µM
- TGI [39]: > 100 µM
- TGI [40]: > 100 µM
- TGI [41]: > 100 µM
- TGI [42]: 70.5 µM
- TGI [43]: > 100 µM
- TGI [44]: > 100 µM
- TGI [45]: > 100 µM
- TGI [46]: > 100 µM
- TGI [47]: > 100 µM
- TGI [49]: > 100 µM
- TGI [50]: 51.7 µM
- TGI [51]: > 100 µM
- TGI [52]: > 100 µM
- TGI [53]: > 100 µM
- TGI [54]: > 100 µM
- TGI [55]: > 100 µM
- TGI [56]: > 100 µM
- TGI [57]: > 100 µM
